Results on one compound are retold here after patent publication US20200140821A1, “EX VIVO MEAT PRODUCTION” (WILD TYPE, INC., priority 2017, published 2020).

Structures are written as SMILES. “Also recorded” adds a separate entry of the source.

This data set has as its system duck hepatocytes. Description: Induction of steatosis in cultured duck hepatocytes by incubation with fatty acid. The data set is classed as cell-based.

In the case of `CCCCC/C=C\C/C=C\CCCCCCCC(=O)O` [linoleic acid], the “dose response: percentage of hepatocytes with steatosis versus concentration” value (0, 0.1, 0.25, 0.5, 1, 2 μm, FIG. 16B) is listed as “corresponding increase in the percentage of hepatocytes with steatosis”. Moreover, for the setting “2 μM linoleic acid, FIG. 16B”, the “percentage of steatotic hepatocytes” value was “above 85%”. Besides, the “induction of steatosis (accumulation of intracellular lipid-containing vesicles)” value (2 μM, compared to untreated control, FIG. 16A) is “successful induction of steatosis; also recorded: successfully induced to undergo steatosis”.
